Results on five molecules are retold here after US20140221475A1, “PLATINUM(IV) COMPLEXES AND PHARMACEUTICAL COMPOSITION CONTAINING THE SAME” (UNITECH CO., LTD., priority 2011, published 2014).

Holding throughout (format): cell-based
The test system of experiment [1] is human lymphoma cell (Jurkat E6.1). Description: Cell proliferation inhibition, MTS method, human lymphoma cell Jurkat E6.1. As for the experimental part: (§1) The test solution was prepared by dissolving the (compound 1) into the DMSO (dimethylsulfoxide) with the concentration of 8 mg/ml.
(§2) The test was implemented by using the human lung cancer cell (LU99), two kind of the human gastric cancer cell (KATO III, MKN-45), the human prostate cancer cell (DU145), the human malignant melanoma cell (G-361), the human bladder cancer cell (T24), two kind of the human lymphoma cell (U937, Jurkat E6.1) and the human leukemia cell (HL60) as the cancer cell.
(§3) These cells were suspended in the each culture medium that the serum of 10% was added, and were dispensed in 96-well plate. And then, these were cultured in 5% CO2 at 37 degrees centigrade during a night. The test solution was prepared in the culture medium to the various concentrations, and was dispensed into the plate that the cells were set preliminarily. And further, these were cultured in 5% CO2 at 37 degrees centigrade for three days.
(§4) The cell proliferation after the medicine addition was measured on the 3rd day from the 1st day after the medicine addition by the MTS method (Kit for cell proliferation test manufactured by Promega Company, Cell Titer 96 Aqueous One Solution Cell Proliferation Assay).
(§5) The inhibition rate (%) of the cell proliferation was obtained from the measured MTS value by the following formula.
(§6) Inhibition rate(%)=(1−MTS value of medicine addition group/MTS value of medicine non-addition group)×100
(§7) Because the value which was obtained by the above-mentioned formula represents the inhibition rate of the cell proliferation, the higher the numerical value is, the higher the medicine effect is. It is deemed that the one whose value is 50% or more has the medicine effect.

Experiment [2] has as its system human lymphoma cell (U937). Description: Cell proliferation inhibition, MTS method, human lymphoma cell U937. As for the experimental part: as §1, §2, §3, §4, §5, §6, §7
(§8) The (compound 2) was prepared as the test solution, and the inhibition rate of the cell proliferation was measured by the method similar to the embodiment 7.

Experiment [3] has as its system human gastric cancer cell (KATO III). Description: Cell proliferation inhibition, MTS method, human gastric cancer cell KATO III. On the procedure: as §1, §2, §3, §4, §5, §6, §7, §8
Experiment [4] relates to human leukemia cell (HL60). Description: Cell proliferation inhibition, MTS method, human leukemia cell HL60. On the procedure:
as §1, §2, §3, §4, §5, §6, §7
(Formazan colour is commonly taken as a measure of viable cells.)

Experiment [5] has as its system human prostate cancer cell (DU145). Description: Cell proliferation inhibition, MTS method, human prostate cancer cell DU145. As for the experimental part:
as §2, §3, §4, §5, §6, §7, §8

The test system of experiment [6] is human bladder cancer cell (T24). Description: Cell proliferation inhibition, MTS method, human bladder cancer cell T24. As for the experimental part: as §2, §3, §4, §5, §6
Because the value which was obtained by the above-mentioned formula represents the inhibition rate of the cell proliferation, the higher the numerical value is, the higher the medicine effect is. It is deemed that the one whose value is 50% or more has the medicine effect. […]

Experiment [7] concerns human lung cancer cell (LU99). Description: Cell proliferation inhibition, MTS method, human lung cancer cell LU99. As for the experimental part: as §2, §3, §4, §5, §6, §7
(§9) The (compound 5) was prepared as the test solution, and the inhibition rate of the cell proliferation was measured by the method similar to the embodiment 7.
(§10) The (compound 6) was prepared as the test solution, and the inhibition rate of the cell proliferation was measured by the method similar to the embodiment 7.

Experiment [8] deals with human malignant melanoma cell (G-361). Description: Cell proliferation inhibition, MTS method, human malignant melanoma cell G-361. On the procedure:
as §2, §3, §4, §5, §6, §7, §9, §10

The test system of experiment [9] is human gastric cancer cell (MKN-45). Description: Cell proliferation inhibition, MTS method, human gastric cancer cell MKN-45. On the procedure: as §2, §3, §4, §5, §6, §7, §9, §10

On to `NC1CCCC12CCCC2N.O=C1CC(=O)[O][Pt]([Cl])([Cl])[O]1` [Compound 1, dichloromalonato((1S,5S,6S)-spiro[4.4]nonane-1,6-diamine)platinum(IV)], for which the “Inhibition rate of cell proliferation after 3 days from medicine addition” value (“Inhibition rate of cell proliferation” for short) in experiment [1] (Jurkat E6.1, 5 μg/ml) turned out to be 92%; in [1] (Jurkat E6.1, 10 μg/ml) it was 97%; in experiment [1] (Jurkat E6.1, 20 μg/ml), 100%; in experiment [2] (U937, 5 μg/ml), 98%; in experiment [2] (U937, 10 μg/ml), 102%; in experiment [2] (U937, 20 μg/ml) it was 101%. Moreover, the “Inhibition rate of cell proliferation” value in experiment [3] (5 μg/ml) turned out to be 53%; in experiment [3] (10 μg/ml) it was 75%; in [3] (20 μg/ml), 88%; in experiment [4] (HL60, 5 μg/ml), 91%; in [4] (HL60, 10 μg/ml), 97%; in [4] (HL60, 20 μg/ml), 99%.
Consider `NC1CCCC12CCCC2N.O=C1CC(=O)[O][Pt]([Cl])([Cl])[O]1` [Compound 2, Dichloro complexes (G) of the malonato((R,R,R)-spiro[4,4]nonane-1,6-diamine)platinum(IV)], for which the “Inhibition rate of cell proliferation” value is recorded as 100% in experiment [2] (U937, 5 μg/ml); 100% in [2] (U937, 10 μg/ml); 100% in [2] (U937, 20 μg/ml); 78% in experiment [3] (5 μg/ml); 90% in experiment [3] (10 μg/ml); 82% in [3] (20 μg/ml). In addition, the “Inhibition rate of cell proliferation” value turned out to be 51% in experiment [5] (DU145, 5 μg/ml); 76% in experiment [5] (DU145, 10 μg/ml); 84% in experiment [5] (DU145, 20 μg/ml); 52% in experiment [6] (T24, 5 μg/ml); 77% in [6] (T24, 10 μg/ml); 87% in experiment [6] (T24, 20 μg/ml).
Take `NC1CCCC12CCCC2N.[Cl][Pt]([Cl])([Cl])[Cl]` [Compound 5, Tetrachloro((S,S,S)-spiro[4.4]nonane-1,6-diamine)platinum(IV)]: the “Inhibition rate of cell proliferation” value in experiment [7] (LU99, 5 μg/ml) was 65%; in [7] (LU99, 10 μg/ml) it was 84%; in experiment [7] (LU99, 20 μg/ml), 91%; in experiment [8] (G-361, 5 μg/ml), 83%; in [8] (G-361, 10 μg/ml), 95%; in experiment [8] (G-361, 20 μg/ml) it was 98%. In addition, the “Inhibition rate of cell proliferation” value in experiment [6] (T24, 5 μg/ml) came to 79%; in experiment [6] (T24, 10 μg/ml) it was 86%; in [6] (T24, 20 μg/ml), 80%; in experiment [9] (MKN-45, 5 μg/ml), 90%; in [9] (MKN-45, 10 μg/ml) it was 93%; in experiment [9] (MKN-45, 20 μg/ml), 87%.
Consider `NC1CCCC12CCCC2N.[Cl][Pt]([Cl])([Cl])[Cl]` [Compound 6, tetrachloro((R,R,R)-spiro[4.4]nonane-1,6-diamine)platinum(IV)], for which the “Inhibition rate of cell proliferation” value in [7] (LU99, 5 μg/ml) is 89%; in experiment [7] (LU99, 10 μg/ml) it was 96%; in experiment [7] (LU99, 20 μg/ml) it was 98%; in experiment [8] (G-361, 5 μg/ml), 89%; in [8] (G-361, 10 μg/ml), 96%; in experiment [8] (G-361, 20 μg/ml), 98%. The “Inhibition rate of cell proliferation” value in experiment [6] (T24, 5 μg/ml) came to 78%; in [6] (T24, 10 μg/ml) it was 81%; in experiment [6] (T24, 20 μg/ml), 81%; in [9] (MKN-45, 5 μg/ml), 88%; in experiment [9] (MKN-45, 10 μg/ml), 80%; in [9] (MKN-45, 20 μg/ml), 76%.
Take `O=C1[O][Pt]2([NH][C@@H]3CCCC[C@H]3[NH]2)[O]C1=O` [Oxaliplatin, oxaliplatin, reference compound]: the “Inhibition rate of cell proliferation” value turned out to be 38% in experiment [7] (LU99, 5 μg/ml); 40% in experiment [7] (LU99, 10 μg/ml); 49% in [7] (LU99, 20 μg/ml); 90% in [1] (Jurkat E6.1, 5 μg/ml); 94% in experiment [1] (Jurkat E6.1, 10 μg/ml); 97% in experiment [1] (Jurkat E6.1, 20 μg/ml). The “Inhibition rate of cell proliferation” value was found to be 50% in experiment [8] (G-361, 5 μg/ml); 59% in [8] (G-361, 10 μg/ml); 74% in experiment [8] (G-361, 20 μg/ml); 67% in [2] (U937, 5 μg/ml); 90% in experiment [2] (U937, 10 μg/ml); 99% in [2] (U937, 20 μg/ml). Besides, the “Inhibition rate of cell proliferation” value in experiment [3] (5 μg/ml) was determined as 58%; in [3] (10 μg/ml), 75%; in experiment [3] (20 μg/ml), 87%; in experiment [5] (DU145, 5 μg/ml), 46%; in experiment [5] (DU145, 10 μg/ml), 71%; in experiment [5] (DU145, 20 μg/ml), 81%. Further, the “Inhibition rate of cell proliferation” value in experiment [4] (HL60, 5 μg/ml) was 73%; in experiment [4] (HL60, 10 μg/ml) it was 86%; in experiment [4] (HL60, 20 μg/ml), 93%; in [6] (T24, 5 μg/ml) it was 38%; in experiment [6] (T24, 10 μg/ml), 43%; in experiment [6] (T24, 20 μg/ml), 48%. The “Inhibition rate of cell proliferation” value in [9] (MKN-45, 5 μg/ml) came out at 73%; in experiment [9] (MKN-45, 10 μg/ml), 82%; in experiment [9] (MKN-45, 20 μg/ml) it was 87%.
